Consider eight compounds from ChEMBL document CHEMBL1201862, “PubChem BioAssay data set” (2004).

Molecules are shown by their SMILES.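 Each compound was tested at five concentrations against cells in 96-well plates for 48 hours. GI50 marks 50% less growth.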 Calls of active or inactive are those of the source. No stated cut-off is given here; in the data, active = GI50 up to about 1.1 µM and inactive = higher. Bounds are passed on as bounds.

Among the test systems are A498; CAKI-1; DU-145; EKVX; HCC 2998; HCT-15; HL-60; HOP-62; IGROV-1; MDA-MB-231; MDA-MB-435; NCI-H460; OVCAR-3; RPMI-8226; SK-MEL-2; SN12C; SNB-19; SNB-75; SR; T47D.
Common to all, as to test: NCI tumour cell line growth inhibition, 48 h

Consider `CN(C)C/C=C(/c1ccc(Br)cc1)c1cccnc1`, for which the GI50 in the assay on A498 is 20.3 µM (inactive); in the assay on CAKI-1, 92.9 µM (inactive); with DU-145 it was > 100 µM (inactive); in the assay on EKVX, > 100 µM (inactive); in the assay on HCC 2998, 15.7 µM (inactive); in the assay with HCT-15 it was more than 100 µM. For the same compound, the GI50 was 0.0165 µM (active) in the assay on HL-60; 45 µM (inactive) in the assay with HOP-62; > 100 µM (inactive) with IGROV-1; 32.7 µM (inactive) in the assay with MDA-MB-231; 32.9 µM (inactive) with MDA-MB-435; 81.3 µM (inactive) with NCI-H460. In addition, the GI50 was > 100 µM (inactive) with OVCAR-3; 34.7 µM (inactive) in the assay on RPMI-8226; 19.8 µM (inactive) in the assay with SK-MEL-2; > 100 µM (inactive) in the assay on SN12C; > 100 µM (inactive) with SNB-19; 51.5 µM (inactive) in the assay with SNB-75. For the same compound, the results for the GI50 in the assay on SR and with T47D were 34.8 µM (inactive) and 58.7 µM (inactive), respectively.

As for `CC(=O)O/C=C\OC1CCCC1(c1ccccc1)c1ccccc1` (stereo not given), the GI50 was 18 µM (inactive) in the assay on A498; 4.5 µM (inactive) in the assay on CAKI-1; 3.95 µM (inactive) in the assay with DU-145; 7.5 µM (inactive) in the assay on EKVX; 8.91 µM (inactive) in the assay with HCC 2998; 2.13 µM in the assay on HCT-15. Besides, the GI50 with HL-60 is 1.34 µM (inactive); in the assay on HOP-62, 12.4 µM (inactive); in the assay with IGROV-1 it was 2.24 µM (inactive); in the assay on MDA-MB-231, 2.4 µM (inactive); in the assay with MDA-MB-435, 1.96 µM (inactive); in the assay with NCI-H460, 7.26 µM (inactive). Further, the GI50 with OVCAR-3 was 2.9 µM (inactive); in the assay with RPMI-8226, 2.65 µM (inactive); with SK-MEL-2 it was 3.57 µM (inactive); in the assay on SN12C it was 3.32 µM (inactive); in the assay on SNB-19 it was 11.2 µM (inactive); in the assay with SNB-75, 3.35 µM (inactive). Moreover, the GI50 in the assay with SR was 1.98 µM (inactive); in the assay on T47D, 2.47 µM (inactive).

As to `Cc1cc(C)c([S@@](=O)O[C@@H]2[C@H]3OC(C)(C)O[C@H]3O[C@@H]2[C@H]2COC(C)(C)O2)c(C)c1`, the GI50 in the assay with A498 was 11.8 µM (inactive); in the assay on CAKI-1, 2.16 µM (inactive); in the assay with DU-145 it was 29.1 µM (inactive); in the assay on EKVX, 20.4 µM (inactive); in the assay with HCC 2998, 22.9 µM (inactive); in the assay on HCT-15 it was 42.9 µM. Further, the GI50 in the assay with HL-60 is 4.18 µM (inactive); with HOP-62 it was 21.5 µM (inactive); in the assay with IGROV-1, 4.24 µM (inactive); in the assay on MDA-MB-231, 26.7 µM (inactive); with MDA-MB-435 it was 18.2 µM (inactive); with NCI-H460, 24.8 µM (inactive). The GI50 was 19.7 µM (inactive) in the assay on OVCAR-3; 17.1 µM (inactive) with RPMI-8226; 31.2 µM (inactive) in the assay with SK-MEL-2; 21 µM (inactive) with SN12C; 40 µM (inactive) in the assay on SNB-19; 21.8 µM (inactive) with SNB-75. Further, the values for the GI50 with SR and in the assay with T47D were 15.6 µM (inactive) and 37.5 µM (inactive), respectively.

For `N#CC(C#N)=CNC(N)=S`, the GI50 in the assay on A498 was > 100 µM (inactive); in the assay with CAKI-1, > 100 µM (inactive); in the assay with DU-145 it was > 100 µM (inactive); in the assay on EKVX, > 100 µM (inactive); with HCC 2998, > 100 µM (inactive); with HCT-15, more than 100 µM. Besides, the GI50 with HL-60, with HOP-62, with IGROV-1, in the assay with MDA-MB-231, with MDA-MB-435 and in the assay on NCI-H460 was > 100 µM (inactive) throughout. For the same compound, the GI50 in the assay with OVCAR-3 was 1.5 µM (inactive); with RPMI-8226 it was > 100 µM (inactive); in the assay on SK-MEL-2, > 100 µM (inactive); in the assay with SN12C, > 100 µM (inactive); in the assay with SNB-19 it was > 100 µM (inactive); in the assay on SNB-75 it was > 100 µM (inactive). Further, the GI50 in the assay on SR and in the assay on T47D was > 100 µM (inactive) in each case.

With `O=c1[nH]c2c(c(=O)[nH]1)SSC2`, the GI50 in the assay with A498 was 25.7 µM (inactive); in the assay on CAKI-1 it was 18.9 µM (inactive); in the assay on DU-145, 13.8 µM (inactive); in the assay with EKVX it was 21.3 µM (inactive); with HCC 2998 it was 16.2 µM (inactive); in the assay on HCT-15 it was 27.7 µM. Besides, the GI50 was 1.99 µM (inactive) in the assay on HL-60; 10.6 µM (inactive) in the assay with HOP-62; 22.3 µM (inactive) in the assay with IGROV-1; 2.18 µM (inactive) in the assay with MDA-MB-231; 2.04 µM (inactive) with MDA-MB-435; 11.7 µM (inactive) with NCI-H460. For the same compound, the GI50 in the assay with OVCAR-3 was 19 µM (inactive); with RPMI-8226, 0.838 µM (active); in the assay with SK-MEL-2, 6.44 µM (inactive); in the assay with SN12C it was 2.75 µM (inactive); in the assay on SNB-19, 25 µM (inactive); in the assay with SNB-75, 17.1 µM (inactive). For the same compound, the GI50 in the assay with SR was 0.275 µM (active); with T47D, 11.2 µM (inactive).

As to `Cc1c(Cl)cccc1NC(=O)/C=C/c1ccccc1`, the GI50 was > 100 µM (inactive) in the assay with A498; 16.3 µM (inactive) with CAKI-1; > 100 µM (inactive) in the assay with DU-145; 55.8 µM (inactive) in the assay with EKVX; > 100 µM (inactive) in the assay with HCC 2998; more than 100 µM with HCT-15. Besides, the GI50 with HL-60 is > 100 µM (inactive); in the assay on HOP-62, > 100 µM (inactive); in the assay with IGROV-1 it was > 100 µM (inactive); in the assay with MDA-MB-231, 17.7 µM (inactive); with MDA-MB-435 it was > 100 µM (inactive); with NCI-H460 it was > 100 µM (inactive). The GI50 in the assay on OVCAR-3 is > 100 µM (inactive); in the assay on RPMI-8226, 97.9 µM (inactive); with SK-MEL-2, > 100 µM (inactive); with SN12C, > 100 µM (inactive); with SNB-19 it was 45.6 µM (inactive); with SNB-75, 22.8 µM (inactive). Further, the GI50 is 50.7 µM (inactive) with SR and > 100 µM (inactive) in the assay with T47D.

Consider `CO[C@@H]1O[C@H](C(=O)c2ccccc2)[C@H]2OC(C)(C)O[C@@H]12`, for which the GI50 in the assay on A498 was > 100 µM (inactive); in the assay on CAKI-1 it was > 100 µM (inactive); in the assay with DU-145, 54.5 µM (inactive); with EKVX it was 86.5 µM (inactive); with HCC 2998, > 100 µM (inactive); with HCT-15, 55.2 µM. In addition, the GI50 in the assay on HL-60 was 21.1 µM (inactive); with HOP-62, > 100 µM (inactive); with IGROV-1, > 100 µM (inactive); in the assay with MDA-MB-231, 79.3 µM (inactive); in the assay on MDA-MB-435, 85.3 µM (inactive); in the assay with NCI-H460, 38.1 µM (inactive). In addition, the GI50 with OVCAR-3 was > 100 µM (inactive); in the assay with RPMI-8226, > 100 µM (inactive); in the assay with SK-MEL-2, > 100 µM (inactive); in the assay with SN12C, 89.7 µM (inactive); in the assay with SNB-19 it was > 100 µM (inactive); in the assay on SNB-75, 96.8 µM (inactive). In addition, the GI50 was 57.8 µM (inactive) in the assay with SR and > 100 µM (inactive) with T47D.

Consider `C=CCNC1=C2C[C@@H](C)C[C@H](OC)[C@H](O)[C@@H](C)/C=C(\C)[C@H](OC(N)=O)[C@@H](OC)/C=C\C=C(/C)C(=O)NC(=CC1=O)C2=O` [TANESPIMYCIN], for which the GI50 was 5.07 µM (inactive) with A498; 1.29 µM (inactive) with CAKI-1; 0.0569 µM (active) with DU-145; 4.01 µM (inactive) in the assay with EKVX; 0.0664 µM (active) in the assay on HCC 2998; 0.204 µM in the assay on HCT-15. The GI50 in the assay with HL-60 is 0.0489 µM (active); in the assay on HOP-62, 0.15 µM (active); in the assay on IGROV-1 it was 0.0331 µM (active); with MDA-MB-231 it was 1.11 µM (active); in the assay on MDA-MB-435 it was 0.0427 µM (active); with NCI-H460 it was 0.0136 µM (active). For the same compound, the GI50 was 0.115 µM (active) in the assay with OVCAR-3; 0.0731 µM (active) with RPMI-8226; 0.292 µM (active) in the assay with SK-MEL-2; 0.0308 µM (active) with SN12C; 0.525 µM (active) in the assay on SNB-19; 0.0173 µM (active) in the assay on SNB-75. For the same compound, the results for the GI50 in the assay on SR and in the assay with T47D were 0.0158 µM (active) and 0.847 µM (active), respectively.
